ChEMBL document CHEMBL1135141, “Inhibition of glutathione S-transferase in rat hepatocytes by a glycine-tetrazole modified S-alkyl-GSH analogue” (Bioorg Med Chem Lett, 2002)

Assays:
Details in all cases: concentration not given here
[1] = target: T1, Glutathione S-transferase Mu 1 (Rattus norvegicus) (UniProt P04905); assay: Tested for percent inhibition of isolated rat liver cytosolic Glutathione S-transferase 3-3 isoenzyme
T1 sequence (whole entry): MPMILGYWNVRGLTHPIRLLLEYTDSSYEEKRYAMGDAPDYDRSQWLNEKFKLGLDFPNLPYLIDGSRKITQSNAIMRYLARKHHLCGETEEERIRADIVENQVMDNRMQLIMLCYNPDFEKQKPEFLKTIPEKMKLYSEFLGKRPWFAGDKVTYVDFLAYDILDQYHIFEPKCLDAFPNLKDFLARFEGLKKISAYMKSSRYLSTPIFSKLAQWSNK

[2] = target: T2, Glutathione S-transferase Mu 2 (Rattus norvegicus) (UniProt P08010); assay: Tested for percent inhibition of isolated rat liver cytosolic Glutathione S-transferase 4-4 isoenzyme
T2 sequence (whole entry): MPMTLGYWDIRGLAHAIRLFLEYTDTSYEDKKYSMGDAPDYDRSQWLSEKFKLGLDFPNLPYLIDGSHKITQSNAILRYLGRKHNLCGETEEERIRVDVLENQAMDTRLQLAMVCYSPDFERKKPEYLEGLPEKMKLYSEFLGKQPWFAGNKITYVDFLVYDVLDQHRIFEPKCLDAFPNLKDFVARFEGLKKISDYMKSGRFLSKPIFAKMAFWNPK

[3] = target: Glutathione S-transferase alpha-1 (Rattus norvegicus) (UniProt P00502); assay: Tested for percent inhibition of isolated rat liver cytosolic Glutathione S-transferase 1-1 isoenzyme
[4] = target: Glutathione S-transferase alpha-3 (Rattus norvegicus) (UniProt P04904); assay: Tested for percent inhibition of isolated rat liver cytosolic Glutathione S-transferase 2-2 isoenzyme
Glutathione S-transferase alpha-3 (Rattus norvegicus), sequence (P04904 whole entry, looked up): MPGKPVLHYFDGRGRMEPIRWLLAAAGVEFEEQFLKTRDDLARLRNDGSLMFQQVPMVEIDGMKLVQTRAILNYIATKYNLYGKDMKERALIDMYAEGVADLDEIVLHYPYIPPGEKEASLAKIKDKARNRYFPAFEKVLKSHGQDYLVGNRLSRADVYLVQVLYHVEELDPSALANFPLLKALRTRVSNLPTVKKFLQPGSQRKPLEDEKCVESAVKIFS

Glutathione S-transferase alpha-1 (Rattus norvegicus), sequence (P00502 whole entry, looked up): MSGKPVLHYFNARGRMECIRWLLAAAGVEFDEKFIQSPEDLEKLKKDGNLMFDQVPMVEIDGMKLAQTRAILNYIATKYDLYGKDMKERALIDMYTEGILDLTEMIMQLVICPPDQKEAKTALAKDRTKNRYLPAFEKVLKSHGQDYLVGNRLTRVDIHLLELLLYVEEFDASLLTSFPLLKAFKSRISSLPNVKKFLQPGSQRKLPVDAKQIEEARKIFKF

Structure (SMILES)	inhibition [1]	inhibition [2]	inhibition [3]	inhibition [4]
CCCCCC(C)SCC(NC(=O)CCC(N)C(=O)O)C(=O)NCc1nn[nH]n1 (stereo not drawn)	65%	59%	16%	53%
CCCCCC(C)SCC(NC(=O)CCC(N)C(=O)O)C(=O)NCC(=O)O (single isomer, unassigned)	95%	91%	53%	98%
